From patent EP3046573B1, “AMYLIN ANALOGUES” (Zealand Pharma A/S, priority 2013, dated 2015) come the findings set out here.

Numbered stars: 1 amine (or outer) side, 2 acyl side, 3 side chain; on linkers, the order of the positions; unused ones are H or OH. Bridge positions count the residues as written; N and C are the ends. Square brackets hold non-standard residues; d marks the D form. Peptide text beside a SMILES is read from it. * marks the point of attachment. C20 diacid = O=C(O)CCCCCCCCCCCCCCCCCCC(=O)*; γGlu = O=C(O)[C@H](CCC(=O)[*:2])N[*:1]; NMeI = CC[C@H](C)[C@H](NC)C(=O)O; Sar = CNCC(=O)O

For assay [1], the system named is male Zucker diabetic fatty (ZDF) rats. As to the kind of experiment: Efficacy testing: glycemic control in Zucker diabetic fatty rats. In kind it is in vivo. As to conditions: for terminal HbA1c levels: 4 weeks, vehicle 8.7 ± 0.2; for non-fasting blood glucose levels on day 13 and on day 27: compared to the vehicle treated rats, P < 0.001; for fasting blood glucose levels: terminal, Compound 82 3, 30, and 100 nmol/kg, Compound 18 30 nmol/kg, P < 0.001 vs. vehicle. The method, then: (§1) Whole-blood glucose levels were determined on tail-vein blood samples by the Biosen (EKF Diagnostic, Germany) enzyme-based electrode method. Blood samples were analyzed for glycated hemoglobin (HbA1c) using a Cobas c111 analyzer (Roche Diagnostics, Mannheim, Germany). Plasma insulin levels were measured using a Meso Scale Discovery (MSD) system (Rockville, MD, USA). Liver fat content was determined by magnetic resonance (MR) scanning using an Echo systems MR scanner. Fat depots were measured by weighing of excised fat.
84 male Zucker diabetic fatty (ZDF) rats (9-10 weeks of age) were used in this study. The animals were housed in groups of n = 2. Stratification of the animals was based on non-fasting blood glucose (primary), changes in non-fasting blood glucose measured from the arrival of the animals until one week before the initiation of the study (secondary) and body weight (tertiary). The animals were further divided into two "teams" with a pair-fed group (group 2) allocated to team 2. Animals from group 2 were pair-fed in order to compare between the contribution made by reduced food intake and by drug-induced effects on glycemic control. The amount of food eaten by the animals treated with Compound 82 (30 nmol/kg, team 1) each day was determined, and the same amount was given to a vehicle-treated pair-fed group of animals the following day.
Rats were treated for 4 weeks with Compound 82 (3, 30 and 100 nmol/kg, sc, every (ev.) 5th day), Compound 18 (30 nmol/kg sc, every 5th day), or the GLP-1 analogue liraglutide (40 nmol/kg sc, twice daily (bid)).
The effects of the compounds on glycemic control were investigated by measurement of non-fasting and fasting blood glucose levels and HbA1c levels.
Statistical analyses were performed using GraphPad™ Prism version 5. The measured parameters were compared using one- way ANOVA followed by Dunnett's multiple comparison test. Comparison between the pair-fed vehicle-treated group and the Compound 82 (30 nmol/kg) group was done using Student's two-tailed and unpaired t-test. Differences were considered statistically significant at p < 0.05.

Assay [2] concerns Male Sprague Dawley rats. As to the kind of experiment: Efficacy testing: food preference (FP) and development of obesity in rats fed on a high-fat diet (HFD). The class given is in vivo. As to conditions: rats self-selecting LFD/HFD, 30 nmol/kg sc, QW, 4 weeks. As to the method: as §1
(§2) Male Sprague Dawley rats obtained from Taconic A/S, Denmark, were used in this study. The animals arrived at least 7 days before the study start to allow acclimatization to experimental conditions. From arrival and throughout the study, the rats were housed in groups of 2 (n = 2) in a light-, temperature- and humidity-controlled room (reversed 12/12 h light/dark cycle: lights turned off during day-time and on during night-time; temperature 20-22°C; relative humidity 50-80%) and maintained on a HFD (60% of total energy from fat, D12492, Research Diet Inc., New Brunswick, USA) for 2 weeks. Animals had access ad libitum to water (domestic quality tap water with citric acid added to pH ∼ 3.6) during the entire study. The rats were stratified according to body weight (primary) and % body weight gain from the beginning of feeding with HFD (secondary). Three days before the initiation of treatment the rats were allowed to self-select between a low-fat diet (LFD, standard chow, 11 % of total energy from fat, Atromin™ 1324, Brogaarden A/S, Gentofte, Denmark) and a high-fat diet, and they remained on the self-selected regimen for the duration of the study. Rats were treated for four weeks with Compound 18 [30 nmol/kg sc, once weekly (QW)] or vehicle.
Statistical analyses were performed using GraphPad™ Prism version 5.
The efficacy of Compound 18 in relation to change in food preference and in relation to the development of obesity were investigated by measurement of food preference, body weight, food intake, water intake, blood glucose levels, plasma insulin levels, mass of liver fat and mass of fat depots.

Assay [3] relates to Male Sprague Dawley rats. As to the kind of experiment: Efficacy testing: development of obesity in rats fed on a high-fat diet (HFD). In kind it is in vivo. As to the method: as §1
(§3) Male Sprague Dawley rats obtained from Taconic A/S, Denmark, were used in this study. The animals arrived at least 7 days before the study start to allow acclimatization to experimental conditions. From arrival and throughout the study, the rats were housed in groups of 2 (n = 2) in a light-, temperature- and humidity-controlled room (reversed 12/12 h light/dark cycle: lights turned off during day-time and on during night-time; temperature 20-22°C; relative humidity 50-80%) and maintained on a HFD (60% of total energy from fat, D12492, Research Diet Inc., New Brunswick, USA) for 2 weeks. Animals had access ad libitum to water (domestic quality tap water with citric acid added to pH ∼ 3.6) during the entire study.The rats were stratified according to body weight (primary) and % body weight gain from the beginning of feeding with HFD (secondary), and treated for 4 weeks with Compound 18 [1, 5 and 30 nmol/kg sc, once weekly (QW)] and Compound 18 (5 nmol/kg sc, every 4th day), and with comparison/reference compounds NN96 (a pramlintide analogue, see Example 5; 30 nmol/kg sc, QW) and the marketed human GLP-1 receptor agonist liraglutide [50 nmol/kg sc, twice daily (bid)], respectively.
(§4) Post-hoc Dunnett's multiple comparison tests were conducted. When appropriate, the two-way ANOVA test was used followed by Bonferroni post tests; p < 0.05 was in all cases considered statistically significant.
(§5) The preventive effects of Compound 18 of the present invention on the development of obesity were investigated by measurement of body weight, food intake, water intake, blood glucose levels, plasma insulin levels, liver fat mass and fat depots.

The subject of a further assay is HFD-fed rats. Put plainly: Development of obesity in rats fed on a high-fat diet (HFD). The class given is in vivo, Male Sprague Dawley rats. The method, then: as §1, §3, §4, §5
For assay [4], the system named is rats self-selecting between a low-fat diet and a high-fat diet. Put plainly: Food preference (FP) and development of obesity in rats fed on a high-fat diet (HFD). The class given is in vivo, Male Sprague Dawley rats. As to conditions: 30 nmol/kg sc, QW, 4 weeks. The method, then: as §1, §2
Statistical analyses were performed using GraphPad™ Prism version 5. […]

As to `CC[C@H](C)[C@@H](C(=O)N[C@@H](CC(C)C)C(=O)N[C@@H](CO)C(=O)N[C@@H](CO)C(=O)N[C@H](C(=O)N[C@@H](CC(N)=O)C(=O)N[C@H](C(=O)NCC(=O)N[C@@H](CO)C(=O)N[C@@H](CC(N)=O)C(=O)N[C@H](C(=O)N1CCC[C@H]1C(N)=O)[C@@H](C)O)C(C)C)[C@@H](C)O)N(C)C(=O)[C@H](C)NC(=O)CN(C)C(=O)[C@H](Cc1ccccc1)NC(=O)[C@H](CC(N)=O)NC(=O)[C@H](CC(N)=O)NC(=O)[C@H](CO)NC(=O)[C@H](CO)NC(=O)[C@H](CCCNC(=N)N)NC(=O)[C@H](Cc1c[nH]cn1)NC(=O)[C@H](CC(C)C)NC(=O)[C@H](Cc1ccccc1)NC(=O)[C@H](CCC(=O)O)NC(=O)[C@H](C)NC(=O)[C@H](CC(C)C)NC(=O)[C@H](CCCNC(=N)N)NC(=O)[C@H](CCC(N)=O)NC(=O)[C@@H](NC(=O)[C@H](C)NC(=O)[C@@H]1CSSC[C@H](NC(=O)[C@H](CCCNC(=N)N)NC(=O)CC[C@H](NC(=O)CCCCCCCCCCCCCCCCCCC(=O)O)C(=O)O)C(=O)N[C@@H](CC(N)=O)C(=O)N[C@@H]([C@@H](C)O)C(=O)N[C@@H](C)C(=O)N[C@@H]([C@@H](C)O)C(=O)N1)[C@@H](C)O` [Compound 18, [19CD]-isoGlu-RC()NTATC()ATQRLAEFLHRSSNNF-Gly(Me)-A-Ile(Me)-LSSTNVGSNTP-NH2] ({C20 diacid-γGlu}-RCNTATCATQRLAEFLHRSSNNF[Sar]A[NMeI]LSSTNVGSNTP-NH2; disulfide 2-7), the “terminal HbA1c levels” value in assay [1] (30 nmol/kg sc every 5th day) is listed as 5.4 ± 0.1%. For the same compound, the “non-fasting blood glucose levels on day 13 and on day 27” value in assay [1] is given as “significantly lower”. In addition, the “fasting blood glucose levels” value in assay [1] is given as “significantly decreased”. In addition, the body weight gain entry in the assay with Male Sprague Dawley rats [2] was “reduction”; in assay [4] (rats self-selecting LFD/HFD), “reduction of body weight gain”. In addition, the “caloric intake deriving from LFD” value is given as “significant increase” with Male Sprague Dawley rats [2] and “significant increase in caloric intake deriving from LFD” in assay [4]. Besides, the “terminal blood glucose levels” value in the assay with Male Sprague Dawley rats [2] is reported as “unaffected”. The “total caloric intake combined from both diets” value in the assay with Male Sprague Dawley rats [2] is reported as “decrease”; in assay [4] (rats self-selecting LFD/HFD), “a decrease in the total caloric intake”. The “mass of fat depots” value in the assay with Male Sprague Dawley rats [3] (4 weeks treatment) is on record as “decrease”; with HFD-fed rats (4 weeks treatment), “a decrease in mass of fat depots”. Moreover, the food intake entry with Male Sprague Dawley rats [3] (4 weeks treatment, vs. vehicle) was “significantly decreased”; in the assay on HFD-fed rats (4 weeks treatment, vs. vehicle), “significantly decreased food intake”. Also, the “terminal liver fat mass” value with Male Sprague Dawley rats [3] (5 and 30 nmol/kg, QW, 4 weeks) was “decrease”; in the assay on HFD-fed rats (5 and 30 nmol/kg, QW, 4 weeks) it was “a decrease in terminal liver fat mass”. Also, the “reduction in body weight gain at the end of the study” value in the assay with Male Sprague Dawley rats [3] (high-dose group (30 nmol/kg sc, QW), 4 weeks) was found to be 26%. Besides, in the assay on HFD-fed rats (5 nmol/kg sc, every 4th day, 4 weeks), the “anti-obesity effects with administration every 4th day” value is on record as “effects similar to those of Compound 18 dosed QW”.

Take `CC[C@H](C)[C@@H](C(=O)N[C@@H](CC(C)C)C(=O)N[C@@H](CO)C(=O)N[C@@H](CO)C(=O)N[C@H](C(=O)N[C@@H](CCC(=O)O)C(=O)N[C@H](C(=O)NCC(=O)N[C@@H](CO)C(=O)N[C@@H](CCC(=O)O)C(=O)N[C@H](C(=O)N1CCC[C@H]1C(N)=O)[C@@H](C)O)C(C)C)[C@@H](C)O)N(C)C(=O)[C@H](C)NC(=O)CN(C)C(=O)[C@H](Cc1ccccc1)NC(=O)[C@H](CO)NC(=O)[C@H](CO)NC(=O)[C@H](CCCNC(=N)N)NC(=O)[C@H](Cc1c[nH]cn1)NC(=O)[C@H](CC(C)C)NC(=O)[C@H](Cc1ccccc1)NC(=O)[C@H](CCC(=O)O)NC(=O)[C@H](C)NC(=O)[C@H](CC(C)C)NC(=O)[C@H](CCCNC(=N)N)NC(=O)[C@H](CCC(N)=O)NC(=O)[C@@H](NC(=O)[C@H](C)NC(=O)[C@@H]1CSSC[C@H](NC(=O)[C@H](CCCNC(=N)N)NC(=O)CC[C@H](NC(=O)CCCCCCCCCCCCCCCCCCC(=O)O)C(=O)O)C(=O)N[C@@H](CC(N)=O)C(=O)N[C@@H]([C@@H](C)O)C(=O)N[C@@H](C)C(=O)N[C@@H]([C@@H](C)O)C(=O)N1)[C@@H](C)O` [Compound 82, [19CD]-isoGlu-RC()NTATC()ATQRLAEFLHRSSF-Gly(Me)-A-Ile(Me)-LSSTEVGSETP-NH2] ({C20 diacid-γGlu}-RCNTATCATQRLAEFLHRSSF[Sar]A[NMeI]LSSTEVGSETP-NH2; disulfide 2-7): the “terminal HbA1c levels” value in assay [1] (3 nmol/kg sc every 5th day) is recorded as 5.6 ± 0.2%; in assay [1] (30 nmol/kg sc every 5th day), 5.4 ± 0.1%; in assay [1] (100 nmol/kg sc every 5th day), 5.4 ± 0.1%. The “HbA1c levels compared to the pair-fed group” value in assay [1] (30 nmol/kg, P < 0.05) was “significant reductions”. In addition, the “non-fasting blood glucose levels on day 13 and on day 27” value in assay [1] is on record as “significantly lower”. Further, the “fasting blood glucose levels” value in assay [1] is reported as “significantly decreased”.
